Where no end group is shown, it is not given here.
System: 22Rv.1 cells
Assay: Clonogenic assay
Assay type: cell-based
Conditions: neomycin selection, colonies quantified; mean ± SEM of at least three independent experiments
From the text: Figure 5 An N-terminal unfolded fragment of the Bag-1 peptide is sufficient to reduce tumor cell growth. A. Schematic diagram of the Bag-1 peptide and its deletion mutants. The ubiquitin-like domain is represented in blue and the BAG domain in red. The numbers refer to the amino acid positions of the different domains. The amino acid residues are numbered following the numbering for Bag-1L. B. Prediction of the secondary structure of the Bag-1 peptide, showing an N-terminal β-hairpin from the ubiquitin-like domain (blue) and a C-terminal α-helix from the BAG domain (red). C. Normalized circular dichroism spectra of the Bag-1 peptides. 30 µM of the Bag-1 peptide were measured in 20 mM KHPO4 buffer, pH 6.8 (black line). Its α-helical content was estimated to be approximately 25% by deconvolution of the spectra (red line). 12 µM of the N-term peptide (green line) and 11 µM of C-term (blue line) were measured under the same conditions. D. ^1H^15N-HSQC NMR spectrum of ^15N-labeled Bag-1 peptide (202–269) in 20 mm KHPO4 buffer, pH 6.8, at 23°C. […] The Hδ and Hε side chain signals of asparagine and glutamine are connected by thin lines. E. The N-terminal region of the Bag-1 peptide is important for GRP78 binding. 400 µg of 22Rv.1 cell lysate were incubated with glutathione-agarose beads carrying 15 µg GST-N-term peptide (lane 2), GST-C-term peptide (lane 3), GST-ΔUbi peptide (lane 4), GST-Bag-1(202–269) peptide (lane 5) and GST (lane 6). The beads were washed and the bound proteins were separated by 10% SDS-PAGE and subjected to Western blotting using antibodies directed against GRP78 or GST. […] F. Clonogenic assay of the Bag-1 peptides expressed in 22Rv.1 cells. Cells transfected with the indicated constructs were selected in medium containing neomycin and the colonies formed were quantified. Shown are the mean value ±SEM of at least three independent experiments using three different plasmid preparations (*p<0.05). […] Six-week old athymic nude mice were injected subcutaneously on both flanks with 5×10^6 cells of each stable clone. Tumor size was measured once per week using a caliper and expressed as tumor volume in mm^3. Shown are the tumor volumes of clones transfected with the N-terminal peptide (G), the C-terminal peptide (H) and the ΔUbi peptide (I). Each point represents the mean volume and standard deviation of at least 5 to 10 tumors.
Figure 6 Selectivity of action of the Bag-1 peptide. A Amino acid sequence of the 19mer peptide and its deletion mutants. B GST pull-down assay performed incubating 400 µg of 22Rv.1 cell lysate and 25 µg of GST-fused deletion mutants of the 19mer peptide. After the pull-down experiment, Western blots were carried out with anti-GRP78/BiP and GST antibodies. C. Fluorescence polarization (FP) assays with a 10 nM FITC-labeled 7-mer Bag-1 peptide and dilutions of the GST-fused substrate binding domain of GRP78 in 60 µl of Tris-GSH buffer (50 mM Tris, 10 mM reduced glutathione and 0.1% BSA, pH 8.0). Triplicate samples were measured after 5 h of incubation at room temperature with an Infinite F-200 reader (Tecan) with excitation at 490 nm and emission at 535 nm. Binding constants were determined from three independent experiments using non-linear regression in Sigma Plot 10.0. D. Competition assays with a complex of 10 nM of FITC-labeled Bag-1 7-mer peptide and 0.75 mg/ml GST-fused GRP78 substrate binding domain was measured against a dilution series from 100 µM to 0.1 nM of wild-type Bag-1 7-mer peptide (filled line) or triple mutant peptide (dotted line) in 40 µl of Tris-GSH buffer. FITC-peptide and the FITC-peptide-protein complex were used as controls. Fluorescence polarization was determined as described above and IC50 values were determined in Sigma Plot. […]

Molecule | 22Rv.1 growth in clonogenic assay
19-mer: Bag-1L 202–220 (TPLSALGIQDGCRVMLIGK; not fully specified) | inhibit 22Rv.1 cell growth
C-terminal peptide: 28 C-terminal fragment of the Bag-1 peptide (Bag-1L 241–269) (EKIADQLEELNKELTGIQQGFLPKDLQAE; not fully specified) | ineffective
N-terminal peptide: N-terminal 40 residues of the Bag-1 peptide (Bag-1L 202–241) (TPLSALGIQDGCRVMLIGKKNSPQEEVELKKLKHLEKSVE; not fully specified) | inhibited growth of the 22Rv.1 cells
ΔUbi peptide: Bag-1 peptide lacking the ubiquitin-like domain portion (Bag-1L 220–269) (KKNSPQEEVELKKLKHLEKSVEKIADQLEELNKELTGIQQGFLPKDLQAE; not fully specified) | ineffective
Bag-1 peptide: internal sequence of 68 amino acids of Bag-1 (Bag1-L 202–269), HA-tagged, expressed from pcDNA3 (also: HA tag, end not given here) TPLSALGIQDGCRVMLIGKKNSPQEEVELKKLKHLEKSVEKIADQLEELNKELTGIQQGFLPKDLQAE | inhibited growth of the 22Rv.1 cells

— publication PMC3462190, “A Peptidic Unconjugated GRP78/BiP Ligand Modulates the Unfolded Protein Response and Induces Prostate Cancer Cell Death” (PLoS ONE, 2012)
